Experiments:
Format in all cases: cell-based
BV-173 = assay: MTT assay; conditions: Homo sapiens; BV-173, MTT at 72 h
Method: (§1) Different representative cell lines for ALL including Jurkat cells (T-ALL), RS 4-11 (MLL-AF4 B-precursor ALL), TO′M-1, BV173 (both Ph+ALL) and AML including K562 (Ph+CML in blast crisis,), HL-60 (NRAS driven AML2), NOMO1 (MLL-AF9 driven AML), KG1 (BMP-FGRF+AML6) and its more immature subtype KG1a were cultured in RPMI 1640 (Gibco Invitrogen, Basel, Switzerland) supplemented with 10% or 20% heat-inactivated fetal calf serum respectively, 2 mM L-glutamine, 100 IU/mL penicillin, and 100 µg/mL streptomycin.
(§2) MTT-assay: cells were seeded first into 24-well plates at the density of […] per well to avoid variations of concentrations in smaller volumes and treated with different doses of OTX015 prepared freshly from 1 mM stock solution in DMSO. Cells were transferred to 96-well plates for MTT-assay. Untreated cells and cells treated with equal amounts of DMSO (0.2-1%) used for dilution of OTX015 were used as controls. The 3-(4,5-dimethylthiazol-2-yl)-2,5-diphenyltetrazolium bromide (MTT) (Molecular Probes, Eugene, USA) was prepared as a stock of 5 mg/ml in PBS. 0.5 mg/mL of MTT solution was then added per well and incubated in the dark at 37° C. for 4 h. Cells were then lysed with 25% SDS lysis buffer and absorbance was read at 570 nm. Two independent experiments were run for each cell line. GI50 values were calculated with Prism v5 software (GraphPad Inc., La Jolla, USA).
(§3) AML and ALL cell lines were exposed to increasing concentrations of compound (1-1), (0.1 nM-10 μM). […] GI50 values were expressed as means from 3 independent experiments.

NOMO1 = assay: MTT assay; conditions: Homo sapiens, NOMO-1; NOMO1, MTT at 72 h
Method: as §1, §2, §3

ALL cell lines = assay: MTT assay, statement over all ALL cell lines; conditions: MTT at 72 h, span over ALL cell lines; read-out: GI50 across all ALL cell lines
Method: as §1
as §2, with “0.5 mg/mL of MTT solution was then added per well and incubated in the dark at 37° C. for 4 h.” left out, “Two independent experiments were run for each cell line.” left out
as §3

HL60 = assay: Apoptosis assessment (annexin V/PI flow cytometry)
Method: (§4) a total of 1×10^6 cellsderived from patients or cell lines were resuspended in 1 mL culture medium and incubated with the indicated dosages of OTX015 prepared freshly from 1 mM stock solution in DMSO. Control cells were incubated with the corresponding amount of dimethyl sulfoxide (DMSO 0.2-1%) to exclude toxicity of the excipient. Apoptotic cells were detected by cytofluorometric analysis using a FACScan (Becton Dickinson, Mountain View, USA). Cells were stained with propidium iodide (PI; 5 μg/mL; Becton Dickinson) and concomitantly for 15 minutes at RT with annexin-V-FITC (Becton Dickinson) according to the manufacturer's instructions to determine outer membrane phosphatidyl serine exposure. Data were analyzed with the Flowjo (Tree Star Inc., Ashland, USA) flow cytometry software.

Jurkat = assay: Apoptosis assessment (annexin V/PI flow cytometry)
Method: as §4

K562 = assay: Apoptosis assessment (annexin V/PI flow cytometry)
Method: as §4

KG1a = assay: Apoptosis assessment (annexin V/PI flow cytometry); conditions: 96 hours at 10 nM
Method: as §4

KG1 = assay: Apoptosis assessment (annexin V/PI flow cytometry)
Method: as §4

RS4-11 = assay: Apoptosis assessment (annexin V/PI flow cytometry); conditions: RS4-11, 96 hours at 10 nM
Method: as §4

TOM-1 = assay: Apoptosis assessment (annexin V/PI flow cytometry); conditions: TOM-1, 96 hours at 10 nM
Method: as §4

[1] = test system: CD34+ and CD34− AML cells; assay: Apoptosis in primary cells; conditions: CD34+ and CD34− cells of one AML patient, 24 hours
Method: as §4
(§5) The efficacy of Compound (1-1) to induce apoptosis in primary cells was investigated. CD34+ and CD34− cells were obtained by positive selection with CD34+ microbeads from cord blood (healthy controls) and one AML patient.

CD34+ cord blood cells = assay: Apoptosis in primary cells; conditions: CD34+ cord blood cells of healthy controls, 500 nM, 24 hours
Method: as §4, §5

CD34− cord blood cells = assay: Apoptosis in primary cells; conditions: CD34− cord blood cells of healthy controls, 24 hours
Method: as §4, §5

Ph+ALL patient cells = assay: Apoptosis in primary patient cells treated ex vivo; conditions: 1 Ph+ ALL patient sample ex vivo, 72 h, 250 and 500 nM
Method: (§6) FIGS. 44A-44D show effects of OTX015 on primary patient cells. 5 samples from AML patients and 2 ALL, including 1 ALL Ph+ patient, were treated ex vivo with OTX015. OTX015 induced apoptosis in primary AML patient samples at various degrees ranging from 35-85% (FIG. 6). The Ph+ALL patient appeared to be resistant. OTX015 induced apoptosis in primary cells of the AML and ALL patients. Mononuclear cells were obtained from bone marrow (BM) or peripheral blood (PB) from AML and ALL patients. Cells were exposed 72 h with 250 and 500 nM of OTX015 and apoptosis was assessed by annexin V and PI staining. Results are shown with means±SD from duplicates of one experiment.
(§7) Mononuclear cells (MNC) from the bone marrow (BM) were isolated by Ficoll-Paque PLUS density gradient (Amersham Biosciences, Sunnyvale, USA). Patient cells were maintained in IMDM (Gibco) supplemented with 10% heat-inactivated fetal calf serum, 2 mM L-glutamine, 100 IU/mL penicillin, and 100 µg/mL streptomycin without growth factors.
(§8) a total of 1×10^6 cellsderived from patients or cell lines were resuspended in 1 mL culture medium and incubated with the indicated dosages of OTX015 prepared freshly from 1 mM stock solution in DMSO. […] Apoptotic cells were detected by cytofluorometric analysis using a FACScan (Becton Dickinson, Mountain View, USA). […] Data were analyzed with the Flowjo (Tree Star Inc., Ashland, USA) flow cytometry software. […]

[2] = test system: primary AML patient samples; assay: Apoptosis in primary patient cells treated ex vivo; conditions: 5 AML patient samples ex vivo, 72 h, 250 and 500 nM
Method: as §6, §7, §8

BRD4, BRD2 and BRD3 = assay: RQ-PCR of BRD4, BRD2 and BRD3 in leukemia cell lines; conditions: 250 nM and 500 nM, 48 h
Method: The total RNA obtained after extraction with TRIZOL (Invitrogen, Grand Island, USA) were titrated to 1 μg/uL and stored at −80° C. The complementary DNA (cDNA) was synthesized from 1 μg RNA. The RQ-PCR reactions (BRD2, BRD3, BRD4, c-MYC and ABL) were performed in a volume of 25 ul from a tenth of the cDNA (equivalent to 100 ng of RNA) on a thermocycler ABI7900HT in standard mode (1 cycle of 2 minutes at 50° C.-10 minutes at 95° C. followed by 50 cycles of 15 seconds at 95° C.-1 minute at 60° C.).

## Cc1sc2c(c1C)C(c1ccc(Cl)cc1)=N[C@@H](CC(=O)Nc1ccc(O)cc1)c1nnc(C)n1-2 [Compound (1-1), 2-[(6S)-4-(4-chlorophenyl)-2,3,9-trimethyl-6H-thienol[3,2-f]-[1,2,4]triazolo[4,3-a][1,4]diazepin-6-yl]-N-(4-hydroxyphenyl)acetamide dihydrate]
BV-173
  GI50: 161 nM
NOMO1
  GI50: 229 nM
ALL cell lines
  GI50: 34.2 to 250 nM
HL60; HL60, 6 hours exposure, read at 96 hours
  delayed apoptosis after drug washout: significant delayed apoptosis
HL60; HL60, 96 hours at 10 nM
  apoptosis: > 90%
Jurkat; 6 hours exposure, read at 96 hours
  delayed apoptosis after drug washout: significant delayed apoptosis
Jurkat; 96 hours at 10 nM
  apoptosis: > 90%
K562; K562, 6 hours exposure, read at 96 hours
  delayed apoptosis after drug washout: but not in the less sensitive K562
K562; K562, 96 hours at 10 nM
  apoptosis: 20%
K562; K562, at 24 hours
  apoptotic cells: 20%
KG1a
  apoptosis: 45%
KG1; KG1, 10 nM, 72 hours
  induction of apoptosis at lower dose: induced apoptosis after prolonged incubation
KG1; KG1, 96 hours at 10 nM
  apoptosis: > 90%
RS4-11
  apoptosis: 30%
TOM-1
  apoptosis: 70%
[1]
  in vitro induction of apoptosis: induction of apoptosis in a dose dependent manner
CD34+ cord blood cells
  toxicity (apoptosis) for immature cord blood cells: toxicity for immature CD34+ cells at the 500 nM dose level
CD34− cord blood cells
  toxicity (apoptosis) for mature cord blood compartment: remained unaffected
Ph+ALL patient cells
  sensitivity to apoptosis induction: resistant
[2]
  apoptosis: 35-85%
BRD4, BRD2 and BRD3
  down regulation of BRD4, BRD2 or BRD3 at the cDNA level: not able to detect a consistent down regulation
  upregulation of BRD3 and BRD2 at the cDNA level: significant upregulation of BRD3 and BRD2 in KG1, K562 and Jurkat and increase of BRD2 in KG1 and HL60

— US20160158245A1, “PHARMACEUTICAL FORMULATION CONTAINING THIENOTRIAZOLODIAZEPINE COMPOUNDS” (ONCOETHIX GmbH, priority 2013, published 2016)
